Reference: patent US12275722B2, “Process of reworking a crystalline form of a glycine transport inhibitor” (Boehringer Ingelheim International GmbH, priority 2020, dated 2025)

Legend:
[1] = Bulk density of the dried/homogenized Compound batches; type: physicochemical; details: reworked (dried, homogenized) drug substance batch
[2] = Water sorption (dynamic vapor sorption), water-uptake; type: physicochemical; details: 25° C., 90% relative humidity for 6 hours under humid nitrogen purge
Protocol: Water sorption isotherms can be determined using a dynamic vapor sorption system (Advantage, DVS, London, UK). The samples are subjected to 0 to 90% relative humidity (RH) stepwise with a step size of 10% at 25° C. Each sample is equilibrated at each RH step for at least 60 min, and equilibrium is assumed if weight increase is less than 0.1% within one minute, and the maximum duration on each RH is 6 hours. Therefore, each sample is held at a given RH for 1 to 6 hours depending on how fast the equilibrium is reached.

## C[C@@H](Oc1ccc(S(C)(=O)=O)cc1C(=O)N1C[C@@H]2C[C@]2(c2cc(C(F)(F)F)on2)C1)C(F)(F)F [Batch 1TA]
[1]; listed as 1TA
  Bulk density: 0.17 g/mL

## C[C@@H](Oc1ccc(S(C)(=O)=O)cc1C(=O)N1C[C@@H]2C[C@]2(c2cc(C(F)(F)F)on2)C1)C(F)(F)F [Batch 1TB]
[1]; listed as 1TB
  Bulk density: 0.16 g/mL

## C[C@@H](Oc1ccc(S(C)(=O)=O)cc1C(=O)N1C[C@@H]2C[C@]2(c2cc(C(F)(F)F)on2)C1)C(F)(F)F [Batch 2TA]
[1]; listed as 2TA
  Bulk density: 0.17 g/mL

## C[C@@H](Oc1ccc(S(C)(=O)=O)cc1C(=O)N1C[C@@H]2C[C@]2(c2cc(C(F)(F)F)on2)C1)C(F)(F)F [Batch 2TB]
[1]; listed as 2TB
  Bulk density: 0.2 g/mL

## C[C@@H](Oc1ccc(S(C)(=O)=O)cc1C(=O)N1C[C@@H]2C[C@]2(c2cc(C(F)(F)F)on2)C1)C(F)(F)F [Batch 3TA]
[1]; listed as 3TA
  Bulk density: 0.18 g/mL

## C[C@@H](Oc1ccc(S(C)(=O)=O)cc1C(=O)N1C[C@@H]2C[C@]2(c2cc(C(F)(F)F)on2)C1)C(F)(F)F [Batch 3TB]
[1]; listed as 3TB
  Bulk density: 0.17 g/mL

## C[C@@H](Oc1ccc(S(C)(=O)=O)cc1C(=O)N1C[C@@H]2C[C@]2(c2cc(C(F)(F)F)on2)C1)C(F)(F)F [Batch 4TA]
[1]; listed as 4TA
  Bulk density: 0.22 g/mL

## C[C@@H](Oc1ccc(S(C)(=O)=O)cc1C(=O)N1C[C@@H]2C[C@]2(c2cc(C(F)(F)F)on2)C1)C(F)(F)F [Batch 4TB]
[1]; listed as 4TB
  Bulk density: 0.17 g/mL

## C[C@@H](Oc1ccc(S(C)(=O)=O)cc1C(=O)N1C[C@@H]2C[C@]2(c2cc(C(F)(F)F)on2)C1)C(F)(F)F [Batch 5]
[1]; listed as 5
  Bulk density: 0.14 g/mL

## C[C@@H](Oc1ccc(S(C)(=O)=O)cc1C(=O)N1C[C@@H]2C[C@]2(c2cc(C(F)(F)F)on2)C1)C(F)(F)F [Batch 6]
[1]; listed as 6
  Bulk density: 0.15 g/mL

## C[C@@H](Oc1ccc(S(C)(=O)=O)cc1C(=O)N1C[C@@H]2C[C@]2(c2cc(C(F)(F)F)on2)C1)C(F)(F)F [Batch 17102]
[1]; listed as 17102
  Bulk density: 0.35 g/mL

## C[C@@H](Oc1ccc(S(C)(=O)=O)cc1C(=O)N1C[C@@H]2C[C@]2(c2cc(C(F)(F)F)on2)C1)C(F)(F)F [Batch 17103]
[1]; listed as 17103
  Bulk density: 0.50 g/mL

## C[C@@H](Oc1ccc(S(C)(=O)=O)cc1C(=O)N1C[C@@H]2C[C@]2(c2cc(C(F)(F)F)on2)C1)C(F)(F)F [Batch 17104]
[1]; listed as 17104
  Bulk density: 0.23 g/mL

## C[C@@H](Oc1ccc(S(C)(=O)=O)cc1C(=O)N1C[C@@H]2C[C@]2(c2cc(C(F)(F)F)on2)C1)C(F)(F)F [Batch 18105]
[1]; listed as 18105
  Bulk density: 0.12 g/mL

## C[C@@H](Oc1ccc(S(C)(=O)=O)cc1C(=O)N1C[C@@H]2C[C@]2(c2cc(C(F)(F)F)on2)C1)C(F)(F)F [Batch 18106]
[1]; listed as 18106
  Bulk density: 0.15 g/mL

## C[C@@H](Oc1ccc(S(C)(=O)=O)cc1C(=O)N1C[C@@H]2C[C@]2(c2cc(C(F)(F)F)on2)C1)C(F)(F)F [Batch 18107]
[1]; listed as 18107
  Bulk density: 0.14 g/mL

## C[C@@H](Oc1ccc(S(C)(=O)=O)cc1C(=O)N1C[C@@H]2C[C@]2(c2cc(C(F)(F)F)on2)C1)C(F)(F)F [Batch 1098942]
[1]; listed as 8942
  Bulk density: 0.16 g/mL

## C[C@@H](Oc1ccc(S(C)(=O)=O)cc1C(=O)N1C[C@@H]2C[C@]2(c2cc(C(F)(F)F)on2)C1)C(F)(F)F [Batch 1098943]
[1]; listed as 8943
  Bulk density: 0.14 g/mL

## C[C@@H](Oc1ccc(S(C)(=O)=O)cc1C(=O)N1C[C@@H]2C[C@]2(c2cc(C(F)(F)F)on2)C1)C(F)(F)F [Batch 1098954]
[1]; listed as 8954
  Bulk density: 0.15 g/mL

## C[C@@H](Oc1ccc(S(C)(=O)=O)cc1C(=O)N1C[C@@H]2C[C@]2(c2cc(C(F)(F)F)on2)C1)C(F)(F)F [Batch 1098955]
[1]; listed as 8955
  Bulk density: 0.15 g/mL

## C[C@@H](Oc1ccc(S(C)(=O)=O)cc1C(=O)N1C[C@@H]2C[C@]2(c2cc(C(F)(F)F)on2)C1)C(F)(F)F [Batch 1099100]
[1]; listed as 9100
  Bulk density: 0.15 g/mL

## C[C@@H](Oc1ccc(S(C)(=O)=O)cc1C(=O)N1C[C@@H]2C[C@]2(c2cc(C(F)(F)F)on2)C1)C(F)(F)F [Batch 1099101]
[1]; listed as 9101
  Bulk density: 0.14 g/mL

## C[C@@H](Oc1ccc(S(C)(=O)=O)cc1C(=O)N1C[C@@H]2C[C@]2(c2cc(C(F)(F)F)on2)C1)C(F)(F)F [Batch 1099102]
[1]; listed as 9102
  Bulk density: 0.15 g/mL

## C[C@@H](Oc1ccc(S(C)(=O)=O)cc1C(=O)N1C[C@@H]2C[C@]2(c2cc(C(F)(F)F)on2)C1)C(F)(F)F [Batch 1099103]
[1]; listed as 9103
  Bulk density: 0.15 g/mL

## C[C@@H](Oc1ccc(S(C)(=O)=O)cc1C(=O)N1C[C@@H]2C[C@]2(c2cc(C(F)(F)F)on2)C1)C(F)(F)F [Batch 1099104]
[1]; listed as 9104
  Bulk density: 0.15 g/mL

## C[C@@H](Oc1ccc(S(C)(=O)=O)cc1C(=O)N1C[C@@H]2C[C@]2(c2cc(C(F)(F)F)on2)C1)C(F)(F)F [amorphous form, [5-(methylsulfonyl)-2-{[(2R)-1,1,1-trifluoropropan-2-yl]oxy}phenyl]{(1R,5R)-1-[5-(trifluoromethyl)-1,2-oxazol-3-yl]-3-azabicyclo[3.1.0]hex-3-yl}methanone]
[2]
  Water-uptake: 1.4%

## C[C@@H](Oc1ccc(S(C)(=O)=O)cc1C(=O)N1C[C@@H]2C[C@]2(c2cc(C(F)(F)F)on2)C1)C(F)(F)F [polymorph II, [5-(methylsulfonyl)-2-{[(2R)-1,1,1-trifluoropropan-2-yl]oxy}phenyl]{(1R,5R)-1-[5-(trifluoromethyl)-1,2-oxazol-3-yl]-3-azabicyclo[3.1.0]hex-3-yl}methanone]
[2]
  Water-uptake: about 0.04%
